Literature values in US8759098B2, “Method for cloning pluripotent stem cells” (Boston Biomedical Research Institute, Inc., priority 2009, dated 2014).

Test system: human adult tissue
Details: used singly and in combination; Lin et al. 2009; cited from earlier work

## O=C(NOC[C@H](O)CO)c1ccc(F)c(F)c1Nc1ccc(I)cc1F [PD0325901]
  efficiency of creating stem cells from human adult tissue: dramatically improve the efficiency
